In this assay the target is Thyrotropin receptor (Homo sapiens, UniProt P16473). The format is functional, cell-based, CHO.
Sequence of Thyrotropin receptor (P16473 whole entry): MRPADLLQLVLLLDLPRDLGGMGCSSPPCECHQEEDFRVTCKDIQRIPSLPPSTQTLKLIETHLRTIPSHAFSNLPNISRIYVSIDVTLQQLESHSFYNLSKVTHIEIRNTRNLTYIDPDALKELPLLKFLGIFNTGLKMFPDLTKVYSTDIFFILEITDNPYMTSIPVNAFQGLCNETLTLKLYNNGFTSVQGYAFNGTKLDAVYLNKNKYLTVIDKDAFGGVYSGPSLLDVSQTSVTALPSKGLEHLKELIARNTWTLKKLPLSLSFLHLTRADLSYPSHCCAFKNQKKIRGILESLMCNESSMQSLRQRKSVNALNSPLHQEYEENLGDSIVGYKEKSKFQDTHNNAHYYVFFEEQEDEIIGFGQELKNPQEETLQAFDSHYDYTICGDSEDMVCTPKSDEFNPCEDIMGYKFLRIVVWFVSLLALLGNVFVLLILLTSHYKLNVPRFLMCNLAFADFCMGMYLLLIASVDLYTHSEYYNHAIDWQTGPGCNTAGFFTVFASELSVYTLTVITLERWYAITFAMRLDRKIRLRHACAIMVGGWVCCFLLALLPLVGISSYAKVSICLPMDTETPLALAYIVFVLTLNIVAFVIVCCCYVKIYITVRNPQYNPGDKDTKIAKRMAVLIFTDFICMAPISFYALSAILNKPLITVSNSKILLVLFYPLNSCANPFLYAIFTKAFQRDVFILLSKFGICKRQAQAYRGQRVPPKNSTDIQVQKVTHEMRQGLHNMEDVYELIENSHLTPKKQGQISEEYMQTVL

`CC(=O)N1CCC(C)(c2ccccc2)c2cc(NC(=O)c3ccc(Br)s3)ccc21` (stereo unspecified): the IC50 was less than 0.1 µM.

These data come from ChEMBL document CHEMBL3886176, “TSH receptor antagonizing tetrahydroquinoline compounds” (2015).
